Data taken from US20230131535A1, “ARYLMETHYLENE AROMATIC COMPOUNDS AS Kv1.3 POTASSIUM SHAKER CHANNEL BLOCKERS” (D. E. Shaw Research, LLC, priority 2019, published 2023).
Read-outs that look alike come from different tables or passages of the source.

Key:
Kv1.3 potassium channel = molecular target: T1, Kv1.3 potassium channel (Homo sapiens, UniProt P22001); assay: Kv1.3 potassium channel blocker activity, automated whole-cell patch clamp (Patchliner); type: cell-based; settings: CHO-K1 cells stably expressing Kv1.3, whole cell current, pulses -90 mV to +40 mV, read-out: Kv1.3_IC50
T1 construct: expressed in transfected cells
In short: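 CHO-K1 cells stably expressing Kv1.3, automated whole-cell patch clamp; 100 ms steps from −90 to +40 mV at 0.1 Hz, 20-pulse trains, P/4 leak subtraction. Cumulative 30 nM–100 μM on one cell, ≤10 s incubation; last-pulse peak/AUC normalised to control, IC50 from Hill fit.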

hERG channel = molecular target: T2, hERG channel (Homo sapiens, UniProt Q12809); assay: hERG electrophysiology, automated whole-cell patch clamp (Patchliner); type: cell-based; settings: CHO-K1 cells stably expressing hERG, whole cell current, tail current protocol, read-out: hERG_IC50
T2 construct: expressed in transfected cells
Protocol: Example 68. Evaluation of hERG Activities
This assay is used to evaluate the disclosed compounds' inhibition activities against the hERG channel.
CHO-K1 cells stably expressing hERG were grown in Ham's F-12 Medium with Glutamine containing 10% heat-inactivated FBS, 1% Penicillin/Streptomycin, Hygromycin (100 μg/ml) and G418 (100 μg/ml). Cells were grown in culture flasks at 37° C. in a 5% CO2-humidified incubator.
The cells were bathed in an extracellular solution containing 140 mM NaCl, 4 mM KCl, 2 mM CaCl2), 1 mM MgCl2, 5 mM Glucose, 10 mM HEPES; pH adjusted to 7.4 with NaOH; 295-305 mOsm. The internal solution contained 50 mM KCl, 10 mM NaCl, 60 mM KF, 20 mM EGTA, 10 mM HEPES; pH adjusted to 7.2 with KOH; 285 mOsm. All compounds were dissolved in DMSO at 30 mM. Compound stock solutions were freshly diluted with external solution to concentrations of 30 nM, 100 nM, 300 nM, 1 μM, 3 μM, 10 μM, 30 μM and 100 μM. The highest content of DMSO (0.3%) was present in 100 μM.
The voltage protocol (see Table 5) was designed to simulate voltage changes during a cardiac action potential with a 300 ms depolarization to +20 mV (analogous to the plateau phase of the cardiac action potential), a repolarization for 300 ms to −50 mV (inducing a tail current) and a final step to the holding potential of −80 mV. The pulse frequency was 0.3 Hz. Control (compound-free) and compound pulse trains for each compound concentration applied contained 70 pulses.
Whole cell current recordings and compound application were enabled by means of an automated patch clamp platform Patchliner (Nanion). EPC 10 patch clamp amplifier (HEKA) along with Patchmaster software (HEKA Elektronik Dr. Schulze GmbH) was used for data acquisition. Data were sampled at 10 kHz without filtering. Increasing compound concentrations were applied consecutively to the same cell without washouts in between.
AUC and PEAK values were obtained with Patchmaster (HEKA Elektronik Dr. Schulze GmbH). To determine IC50 the last single pulse in the pulse train corresponding to a given compound concentration was used. Obtained AUC and PEAK values in the presence of compound were normalized to control values in the absence of compound. Using Origin (OridinLab), IC50 was derived from data fit to Hill equation: Icompound/Icontrol=(100−A)/(1+([compound]/IC50)nH)+A, where IC50 is the concentration at which current inhibition is half-maximal, [compound] is the applied compound concentration, A is the fraction of current that is not blocked and nH is the Hill coefficient.

T1 sequence (P22001 whole entry): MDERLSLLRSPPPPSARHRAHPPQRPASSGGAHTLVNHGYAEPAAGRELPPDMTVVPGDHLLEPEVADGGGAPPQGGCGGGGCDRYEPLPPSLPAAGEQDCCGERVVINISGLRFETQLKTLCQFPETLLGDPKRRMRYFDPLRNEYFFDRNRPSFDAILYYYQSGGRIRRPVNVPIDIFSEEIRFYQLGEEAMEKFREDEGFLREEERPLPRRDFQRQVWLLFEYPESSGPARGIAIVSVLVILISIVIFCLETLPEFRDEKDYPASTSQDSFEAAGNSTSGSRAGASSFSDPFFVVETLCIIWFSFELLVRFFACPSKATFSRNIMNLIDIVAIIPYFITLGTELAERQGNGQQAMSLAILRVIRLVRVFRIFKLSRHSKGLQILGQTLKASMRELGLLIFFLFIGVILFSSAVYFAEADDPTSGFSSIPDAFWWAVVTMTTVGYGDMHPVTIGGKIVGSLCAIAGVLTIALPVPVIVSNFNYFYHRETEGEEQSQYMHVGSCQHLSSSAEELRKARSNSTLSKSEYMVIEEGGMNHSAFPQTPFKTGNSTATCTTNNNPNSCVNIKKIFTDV
T2 sequence (Q12809 whole entry): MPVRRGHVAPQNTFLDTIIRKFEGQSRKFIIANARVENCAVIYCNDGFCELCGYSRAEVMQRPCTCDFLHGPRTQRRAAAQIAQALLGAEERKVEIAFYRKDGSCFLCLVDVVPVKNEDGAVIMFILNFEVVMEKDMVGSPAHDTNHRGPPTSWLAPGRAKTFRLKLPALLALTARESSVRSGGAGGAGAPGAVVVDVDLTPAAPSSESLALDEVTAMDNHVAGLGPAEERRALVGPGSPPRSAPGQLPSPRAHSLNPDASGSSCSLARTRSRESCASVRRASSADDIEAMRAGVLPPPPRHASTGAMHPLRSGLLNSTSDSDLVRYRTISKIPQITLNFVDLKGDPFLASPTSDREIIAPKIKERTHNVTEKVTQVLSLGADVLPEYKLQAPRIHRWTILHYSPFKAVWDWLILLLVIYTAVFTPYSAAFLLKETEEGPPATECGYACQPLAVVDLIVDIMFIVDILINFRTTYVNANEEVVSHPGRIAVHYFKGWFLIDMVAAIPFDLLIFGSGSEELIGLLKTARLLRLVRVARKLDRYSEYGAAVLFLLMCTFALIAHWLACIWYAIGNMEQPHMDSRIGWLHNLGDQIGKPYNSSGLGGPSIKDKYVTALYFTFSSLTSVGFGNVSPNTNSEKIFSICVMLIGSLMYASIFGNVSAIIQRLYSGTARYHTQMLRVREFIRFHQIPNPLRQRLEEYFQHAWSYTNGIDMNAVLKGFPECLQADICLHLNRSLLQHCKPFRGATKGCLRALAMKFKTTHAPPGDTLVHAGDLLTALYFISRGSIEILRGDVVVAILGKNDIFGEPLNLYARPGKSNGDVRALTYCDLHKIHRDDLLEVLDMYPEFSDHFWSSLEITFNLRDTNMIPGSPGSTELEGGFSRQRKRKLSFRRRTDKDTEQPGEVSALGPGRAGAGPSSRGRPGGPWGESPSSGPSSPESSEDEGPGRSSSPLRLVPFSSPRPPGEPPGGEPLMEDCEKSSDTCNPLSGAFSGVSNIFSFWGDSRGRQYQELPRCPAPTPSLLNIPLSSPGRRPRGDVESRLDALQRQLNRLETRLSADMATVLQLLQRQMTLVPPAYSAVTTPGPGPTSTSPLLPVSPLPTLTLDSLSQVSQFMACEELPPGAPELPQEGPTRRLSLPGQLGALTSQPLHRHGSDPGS

| SMILES | IC50 (Kv1.3 potassium channel; Table 7) [µM] | IC50 (Kv1.3 potassium channel; Table 6) [µM] | IC50 (hERG channel; Table 7) [µM] | IC50 (hERG channel; Table 6) [µM] |
| --- | --- | --- | --- | --- |
| C[C@H](NC(=O)C1CNC1)c1c(O)ccc(Cl)c1Br [Compound 98, N-[(1S)-1-(2-bromo-3-chloro-6-hydroxyphenyl)ethyl]azetidine-3-carboxamide] | < 1 |  | > 30 |  |
| Nc1cc(Cc2cc(Cl)c(Cl)cc2O)ccn1 [Compound 2, 2-[(2-aminopyridin-4-yl)methyl]-4,5-dichlorophenol] |  | < 10 |  | < 30 |
| C[C@H](NC(=O)C1CN(CCO)C1)c1c(O)ccc(Cl)c1Cl [Compound 89, N-[(1S)1-(2,3-dichloro-6-hydroxyphenyl)ethyl]-1-(2-hydroxyethyl) azetidine-3-carboxamide] | < 1 |  | > 30 |  |
| NC(c1ccncc1)c1c(O)ccc(Cl)c1Cl (stereo not shown) [Compound 11, 2-[amino(pyridin-4-yl)methyl]-3,4-dichlorophenol] |  | < 10 |  | > 30 |

Continued, in another order:

| IC50 (Kv1.3 potassium channel; Table 7) [µM] | IC50 (Kv1.3 potassium channel; Table 6) [µM] | SMILES | IC50 (hERG channel; Table 7) [µM] | IC50 (hERG channel; Table 6) [µM] |
| --- | --- | --- | --- | --- |
|  | < 1 | Cc1cnccc1C(NC(=O)C1CNC1)c1c(O)ccc(Cl)c1Cl (stereo not shown) [Compound 9, N-[(2,3-dichloro-6-hydroxyphenyl)(3-methylpyridin-4-yl)methyl]azetidine-3-carboxamide] |  | > 30 |
|  | < 1 | NC(c1ccc2c(c1)CNC2)c1cc(Cl)c(Cl)cc1O (stereo not shown) [Compound 21, 2-[amino(2,3-dihydro-1H-isoindol-5-yl)methyl]-4,5-dichlorophenol] |  | < 30 |
|  | < 1 | CC(=O)NC(c1ccncc1)c1c(O)ccc(Cl)c1Cl (stereo not shown) [Compound 20, N-[(2,3-dichloro-6-hydroxyphenyl)(pyridin-4-yl)methyl]acetamide] |  | > 30 |
|  | < 1 | Oc1ccc(Cl)c(Cl)c1C(O)c1cccnc1 (stereo not shown) [Compound 31, 3,4-dichloro-2-[hydroxy(pyridin-3-yl)methyl]phenol] |  | > 30 |
